Assay results as given in US20240327393A1 (SIRONAX LTD., priority 2021, published 2024).

System: HT-1080 (ATCC, CCL-121) cells
Assay: HT-1080 cell viability assay with ferroptosis inducer RSL3 (Cell Titer-Glo)
Assay type: cell-based
Details: Homo sapiens; HT-1080 cells treated with RSL3; 3-fold, 10-point dilution, 1.1 μM highest concentration; Table 3; read-out: EC50 (nM), ferroptosis inhibitory activity
Method in brief: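 EC50 was derived by sigmoidal dose-response regression of CellTiter-Glo luminescence viability, expressed relative to untreated wells. Compounds were tested in a ten-point, threefold dilution series (highest 1.1 μM) in the presence of the ferroptosis inducer RSL3. HT-1080 cells had been seeded at 6000 per well and grown overnight first.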

Compound	EC50
Cc1cc(N2CC(C)(F)C2)ccc1Nc1ccc2c(c1)OCCC(=O)N2 [Compound 623]	0.1 to 100 nM
Cc1cc(N2CCC(C(F)(F)F)CC2)ccc1Nc1ccc2nccn2c1 [Compound 624, N-(2-methyl-4-(4-(trifluoromethyl)piperidin-1-yl)phenyl) imidazo[1,2-a]pyridin-6-amine]	0.1 to 100 nM
Cc1cc(N2CCC(C(F)(F)F)CC2)ccc1Nc1ccn2ncc(C(N)=O)c2c1 [Compound 625, 5-((2-methyl-4-(4-(trifluoromethyl)piperidin-1-yl)phenyl)amino) pyrazolo[1,5-a]pyridine-3-carboxamide]	0.1 to 100 nM
Cc1cc(N2CC(F)(F)C2)ccc1Nc1ccc2c(c1)OCCC(=O)N2 [Compound 626, 8-((4-(3,3-difluoroazetidin-1-yl)-2-methylphenyl)amino)-2,3-dihydrobenzo[b][1,4]oxazepin-4(5H)-one]	0.1 to 100 nM
Cc1cc(N2CC(F)(F)C2)ccc1Nc1ccc2c(c1)OCC(N)C(=O)N2 (stereo not shown) [Compound 627, 3-amino-8-((4-(3,3-difluoroazetidin-1-yl)-2-methylphenyl)amino)-2,3-dihydrobenzo[b][1,4]oxazepin-4(5H)-one]	0.1 to 100 nM
Cc1cc(N2CCC(C(F)(F)F)C2)ccc1Nc1ccc2c(c1)OCCC(=O)N2 (stereo not shown) [Compound 628, 8-((2-methyl-4-(3-(trifluoromethyl)pyrrolidin-1-yl)phenyl)amino)-2,3-dihydrobenzo[b][1,4]oxazepin-4(5H)-one]	0.1 to 100 nM
Cc1cc(N2CCC(F)(F)CC2)ccc1Nc1ccc2c(c1)OCCC(=O)N2 [Compound 629, 8-((4-(4,4-difluoropiperidin-1-yl)-2-methylphenyl)amino)-2,3-dihydrobenzo[b][1,4]oxazepin-4(5H)-one]	0.1 to 100 nM
Cc1cc(N2CCC(C(F)(F)F)CC2)ccc1Nc1ccc2ncc(C(N)=O)n2c1 [Compound 630, 6-((2-methyl-4-(4-(trifluoromethyl)piperidin-1-yl)phenyl)amino) imidazo[1,2-a]pyridine-3-carboxamide]	0.1 to 100 nM
Cc1cc(N2CCC(C(F)(F)F)CC2)ccc1Nc1ccc2c(c1)OCC(=O)N(C)C2 [Compound 631, 4-methyl-8-((2-methyl-4-(4-(trifluoromethyl)piperidin-1-yl)phenyl)amino)-4,5-dihydrobenzo[f][1,4]oxazepin-3(2H)-one]	0.1 to 100 nM
Cc1cc(N2CC(O)(C(F)(F)F)C2)ccc1Nc1ccc2c(c1)OCC(=O)N2 [Compound 632, 7-({4-[3-hydroxy-3-(trifluoromethyl)azetidin-1-yl]-2-methylphenyl}amino)-2,4-dihydro-1,4-benzoxazin-3-one]	0.1 to 100 nM
COC1(C(F)(F)F)CN(c2ccc(Nc3ccc4c(c3)OCC(=O)N4)c(C)c2)C1 [Compound 633, 7-({4-[3-methoxy-3-(trifluoromethyl)azetidin-1-yl]-2-methylphenyl}amino)-2,4-dihydro-1,4-benzoxazin-3-one]	0.1 to 100 nM
Cc1cc(NC(C)(C)C)ccc1Nc1ccc2c(c1)OCC(=O)N2 [Compound 634, 7-((4-(tert-butylamino)-2-methylphenyl)amino)-2H-benzo[b][1,4]oxazin-3(4H)-one]	0.1 to 100 nM
CCNc1ccc(Nc2ccc3c(c2)OCC(=O)N3)c(C)c1 [Compound 635, 7-((4-(ethylamino)-2-methylphenyl)amino)-2H-benzo[b][1,4]oxazin-3(4H)-one]	0.1 to 100 nM
Cc1cc(N2CC(F)(F)C(F)(F)C2)ccc1Nc1ccc2c(c1)OCC(=O)N2 [Compound 636, 7-((2-methyl-4-(3,3,4,4-tetrafluoropyrrolidin-1-yl)phenyl)amino)-2H-benzo[b][1,4]oxazin-3(4H)-on]	0.1 to 100 nM
Cc1cc(N2C[C@@H](C)O[C@@H](C)C2)ccc1Nc1ccc2cn(C)nc2c1 [Compound 637, N-(4-((2S,6R)-2,6-dimethylmorpholino)-2-methylphenyl)-2-methyl-2H-indazol-6-amine]	0.1 to 100 nM
Cc1cc(N2C[C@@H](C)O[C@@H](C)C2)ccc1Nc1ccc2cnn(C)c2c1 [Compound 638, N-(4-((2S,6R)-2,6-dimethylmorpholino)-2-methylphenyl)-1-methyl-1H-indazol-6-amine]	0.1 to 100 nM
COC1(C)CN(c2ccc(Nc3ccc4c(c3)OCC(=O)N4)c(C)c2)C1 [Compound 639, 7-((4-(3-methoxy-3-methylazetidin-1-yl)-2-methylphenyl)amino)-2H-benzo[b][1,4] oxazin-3(4H)-one]	0.1 to 100 nM
Cc1cc(N2CC(OC(C)C)C2)ccc1Nc1ccc2c(c1)OCC(=O)N2 [Compound 640, 7-((4-(3-isopropoxyazetidin-1-yl)-2-methylphenyl)amino)-2H-benzo[b][1,4]oxazin-3(4H)-one]	0.1 to 100 nM
Cc1cc(N2CC3CC3C2)ccc1Nc1ccc2c(c1)OCC(=O)N2 (stereo not shown) [Compound 641, 7-((4-(3-azabicyclo[3.1.0]hexan-3-yl)-2-methylphenyl)amino)-2H-benzo[b][1,4]oxazin-3(4H)-one]	0.1 to 100 nM

Compound	EC50
CC1CC(C(F)(F)F)CCN1c1ccc(Nc2ccc3c(c2)OCC(=O)N3)cc1 (stereo not shown) [Compound 642, 7-((4-(2-methyl-4-(trifluoromethyl)piperidin-1-yl)phenyl)amino)-2H-benzo[b][1,4]oxazin-3(4H)-one]	0.1 to 100 nM
Cc1cc(N2CCC(C(F)(F)F)CC2)ccc1Nc1ccc2c(c1)NCCC(=O)N2 [Compound 643, 7-((2-methyl-4-(4-(trifluoromethyl)piperidin-1-yl)phenyl)amino)-1,3,4,5-tetrahydro-2H-benzo[b][1,4]diazepin-2-one]	0.1 to 100 nM
Cc1cc(N2CCC(C(F)(F)F)CC2)ccc1Nc1ccc2c(c1)C(=O)NCC(=O)N2 [Compound 644, 7-((2-methyl-4-(4-(trifluoromethyl)piperidin-1-yl)phenyl)amino)-3,4-dihydro-1H-benzo[e][1,4]diazepine-2,5-dione]	0.1 to 100 nM
COC1(C(F)(F)F)CN(c2ccc(Nc3ccc4c(c3)OCCC(=O)N4)c(C)c2)C1 [Compound 645, 8-[4-[3-methoxy-3-(trifluoromethyl)azetidin-1-yl]-2-methyl-anilino]-3,5-dihydro-2H-1,5-benzoxazepin-4-one]	0.1 to 100 nM
Cc1cc(N2CCC(C(F)(F)F)CC2)ccc1Nc1ccc2c(c1)OCC(O)C(=O)N2 (stereo not shown) [Compound 646, 3-hydroxy-8-((2-methyl-4-(4-(trifluoromethyl)piperidin-1-yl)phenyl)amino)-2,3-dihydrobenzo[b][1,4]oxazepin-4(5H)-one]	0.1 to 100 nM
COC1(C(F)(F)F)CCN(c2ccc(Nc3ccc4c(c3)OCCC(=O)N4)c(C)c2)C1 (stereo not shown) [Compound 647, 8-((4-(3-methoxy-3-(trifluoromethyl)pyrrolidin-1-yl)-2-methylphenyl)amino)-2,3-dihydrobenzo[b][1,4]oxazepin-4(5H)-one]	0.1 to 100 nM
Cc1cc(N2C[C@@H](C)O[C@@H](C)C2)ccc1Nc1ccc2cn[nH]c2c1 [Compound 648, N-(2-methyl-4-((2S,6R)-2,6-dimethylmorpholino)phenyl)-1H-indazol-6-amine]	0.1 to 100 nM
Cc1cc(N2CC(O)(C(F)(F)F)C2)ccc1Nc1ccc2c(c1)OCCC(=O)N2 [Compound 649, 8-[4-[3-hydroxy-3-(trifluoromethyl)azetidin-1-yl]-2-methyl-anilino]-3,5-dihydro-2H-1,5-benzoxazepin-4-one]	0.1 to 100 nM
Cc1cc(N2CCC(C(F)(F)F)CC2)ccc1Nc1ccc2c(c1)COCC(=O)N2 [Compound 650, 7-((2-methyl-4-(4-(trifluoromethyl)piperidin-1-yl)phenyl)amino)-1,5-dihydrobenzo[e][1,4]oxazepin-2(3H)-one]	0.1 to 100 nM
Cc1cc(N2CC(O)(C(F)(F)F)C2)ccc1Nc1ccc2c(c1)ncn2C [Compound 651, 1-[3-methyl-4-[(1-methylbenzimidazol-5-yl)amino]phenyl]-3-(trifluoromethyl)azetidin-3-ol]	0.1 to 100 nM
Cc1cc(N2CC(OC(F)F)C2)ccc1Nc1ccc2c(c1)OCC(=O)N2 [Compound 652, 7-[4-[3-(difluoromethoxy)azetidin-1-yl]-2-methyl-anilino]-4H-1,4-benzoxazin-3-one]	0.1 to 100 nM
Cc1cc(OC(F)F)ccc1Nc1ccc2c(c1)OCC(=O)N2 [Compound 653, 7-[4-(difluoromethoxy)-2-methyl-anilino]-4H-1,4-benzoxazin-3-one]	0.1 to 100 nM
Cc1cc(N2CCC(C(F)F)CC2)ccc1Nc1ccc2c(c1)OCC(=O)N2 [Compound 654, 7-[4-[4-(difluoromethyl)-1-piperidyl]-2-methyl-anilino]-4H-1,4-benzoxazin-3-one]	0.1 to 100 nM
Cc1cc(N2CC(C(F)F)C2)ccc1Nc1ccc2c(c1)OCC(=O)N2 [Compound 655, 7-[4-[3-(difluoromethyl)azetidin-1-yl]-2-methyl-anilino]-4H-1,4-benzoxazin-3-one]	0.1 to 100 nM
CC1=NCC(=O)Nc2ccc(Nc3ccc(N4CCC(C(F)(F)F)CC4)cc3C)cc21 [Compound 656, 5-methyl-7-[2-methyl-4-[4-(trifluoromethyl)-1-piperidyl]anilino]-1,3-dihydro-1,4-benzodiazepin-2-one]	0.1 to 100 nM
Cc1cc(N2CC(OC(F)(F)F)C2)ccc1Nc1ccc2c(c1)OCC(O)C(=O)N2 (stereo not shown) [Compound 657, 3-hydroxy-8-[2-methyl-4-[3-(trifluoromethoxy)azetidin-1-yl]anilino]-3,5-dihydro-2H-1,5-benzoxazepin-4-one]	0.1 to 100 nM
Cc1cc(N2CC(OC(F)F)C2)ccc1Nc1ccc2c(c1)OCC(O)C(=O)N2 (stereo not shown) [Compound 658, 8-[4-[3-(difluoromethoxy)azetidin-1-yl]-2-methyl-anilino]-3-hydroxy-3,5-dihydro-2H-1,5-benzoxazepin-4-one]	0.1 to 100 nM
CCC(C)(C)Nc1ccc(Nc2ccc3c(c2)OCC(=O)N3)c(C)c1 [Compound 659, 7-[4-(1,1-dimethylpropylamino)-2-methyl-anilino]-4H-1,4-benzoxazin-3-one]	0.1 to 100 nM
